Laboratory results as given in ChEMBL document CHEMBL1201862, “PubChem BioAssay data set” (2004).
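Where inhibition never reached the appropriate level, the endpoint shown equals the highest concentration tested. Otherwise, values were interpolated linearly from a five-concentration, 48-hour dose response in 96-well plates. GI50 is the concentration that inhibits growth by half.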 Calls of active or inactive are those of the source. Rule as the data show it: active = GI50 up to about 1.1 µM and inactive = higher.

How the values were obtained:
Experiment in all cases: NCI-60 cell line screen, 48 h
PC-3 = tested on: PC-3
A498 = tested on: A498
HCT-116 = tested on: HCT-116
HCT-15 = tested on: HCT-15
HOP-92 = tested on: HOP-92
SK-MEL-5 = tested on: SK-MEL-5
SNB-19 = tested on: SNB-19
SNB-75 = tested on: SNB-75
SW-620 = tested on: SW-620
SF-295 = tested on: SF-295
RPMI-8226 = tested on: RPMI-8226
UO-31 = tested on: UO-31
TK-10 = tested on: TK-10
K562 = tested on: K562
IGROV-1 = tested on: IGROV-1
OVCAR-3 = tested on: OVCAR-3
SN12C = tested on: SN12C
MOLT-4 = tested on: MOLT-4
HT-29 = tested on: HT-29
SK-MEL-28 = tested on: SK-MEL-28

Compound	GI50 (PC-3)	GI50 (A498)	GI50 (HCT-116)	GI50 (HCT-15)	GI50 (HOP-92)	GI50 (SK-MEL-5)	GI50 (SNB-19)	GI50 (SNB-75)	GI50 (SW-620)	GI50 (SF-295)	GI50 (RPMI-8226)	GI50 (UO-31)	GI50 (TK-10)	GI50 (K562)	GI50 (IGROV-1)	GI50 (OVCAR-3)	GI50 (SN12C)	GI50 (MOLT-4)	GI50 (HT-29)	GI50 (SK-MEL-28)
CNC1=C(C)C(=O)C(O)=C([C@H](C)CCC=C(C)C)C1=O	22.6 µM (inactive)	19.5 µM (inactive)	33.9 µM (inactive)	6.92 µM	33.1 µM (inactive)	14.4 µM (inactive)	31.8 µM (inactive)	18 µM (inactive)	23.9 µM (inactive)	11.4 µM (inactive)	2.94 µM (inactive)	9.82 µM (inactive)	31 µM (inactive)	29 µM (inactive)	3.91 µM (inactive)	11.7 µM (inactive)	22.8 µM (inactive)	6.18 µM (inactive)	36.6 µM (inactive)	31.4 µM (inactive)
O=C(O)Cc1ccc(Oc2nc3ccccc3nc2-c2cccs2)cc1	46.3 µM (inactive)	22.1 µM (inactive)	54.6 µM (inactive)	35.3 µM	34.3 µM (inactive)	72.9 µM (inactive)	82.8 µM (inactive)	27.2 µM (inactive)	> 100 µM (inactive)	42.6 µM (inactive)	33.1 µM (inactive)	37.3 µM (inactive)	95.1 µM (inactive)	99.3 µM (inactive)	68.9 µM (inactive)	48.4 µM (inactive)	84.9 µM (inactive)	50 µM (inactive)	42.6 µM (inactive)	60.4 µM (inactive)
CO[C@]12CC(=O)C3(C(C[C@H]4CC5CC=C6C[C@@H](OC(C)=O)CC[C@]6(OC(C)=O)C5C[C@@]43C)C1)C1C[C@H]3[C@@H]4CC=C5C[C@@H](OC(C)=O)CC[C@]5(OC(C)=O)[C@H]4CC[C@]3(C)C12 (stereo not given in full)	10.7 µM (inactive)	27.2 µM (inactive)	6.55 µM (inactive)	21.6 µM	18.7 µM (inactive)	3.53 µM (inactive)	13.9 µM (inactive)	36.7 µM (inactive)	41 µM (inactive)	13.9 µM (inactive)	7.18 µM (inactive)	16.1 µM (inactive)	43.2 µM (inactive)	8.85 µM (inactive)	20.1 µM (inactive)	19.7 µM (inactive)	14.6 µM (inactive)	5.58 µM (inactive)	16.1 µM (inactive)	30 µM (inactive)
